For the assay, the system named is H460 cells. Put plainly: cell penetration of FITC-tagged peptides in H460 cells (confocal fluorescence imaging). The format is cell-based. The settings on record: 3 μm, 2 hours, FIGS. 3A-3B. Here is the method: The peptides of Examples 1-19 were tested for cell penetration in H460 and HeLa cell lines as follows.
The H460 cell line and HeLa (ATCC) were maintained in growth media then passaged every 2-3 days. Growth media for H460 was RPMI 1640, 10% fetal calf serum, sodium pyruvate, antibiotics and glutamine (GIBCO). Growth media for HeLa cells was DMEM supplemented with 10% heat-inactivated fetal calf serum, antibiotics and glutamine (GIBCO).
Cells were plated onto Whatman glass-bottom 96-well plates or Perkin Elmer glass-bottom 96-well plates and cultured overnight. Peptide stocks were prepared in DMSO and were diluted in cell growth media for cellular uptake studies. After 2 and 24 h of peptide incubation at various concentrations, media was removed followed by three washes of acidic saline. Formaldehyde fixation, with or without Hoechst 33342 dye solution (to stain nuclei), was followed by PBS washes. Plates were imaged on the Operetta High Content Imaging system in confocal fluorescence mode using the 40×water immersion high NA objective.

* marks the point of attachment. FITC = O=C1OC2(c3ccc(O)cc3Oc3cc(O)ccc32)c2ccc(NC(=S)*)cc21; Ahx = NCCCCCC(=O)O

Consider “FITC-6Ahx-KVFSPKKKMEFFLLF-NH2 ({FITC-Ahx}-KVFSPKKKMEFFLLF-NH2; SMILES CSCC[C@H](NC(=O)[C@H](CCCCN)NC(=O)[C@H](CCCCN)NC(=O)[C@H](CCCCN)NC(=O)[C@@H]1CCCN1C(=O)[C@H](CO)NC(=O)[C@H](Cc1ccccc1)NC(=O)[C@@H](NC(=O)[C@H](CCCCN)NC(=O)CCCCCNC(=S)Nc1ccc2c(c1)C(=O)OC21c2ccc(O)cc2Oc2cc(O)ccc21)C(C)C)C(=O)N[C@@H](CCC(=O)O)C(=O)N[C@@H](Cc1ccccc1)C(=O)N[C@@H](Cc1ccccc1)C(=O)N[C@@H](CC(C)C)C(=O)N[C@@H](CC(C)C)C(=O)N[C@@H](Cc1ccccc1)C(N)=O) [Example 12]”, for which the “cell penetration as determined by the fluorescence” value (“cell penetration as determined” below) is given as “low but still cell penetrating”.
In the case of “FITC-6Ahx-LLPQWPRIRHIKLLR-NH2 ({FITC-Ahx}-LLPQWPRIRHIKLLR-NH2; SMILES CC[C@H](C)[C@H](NC(=O)[C@H](Cc1c[nH]cn1)NC(=O)[C@H](CCCNC(=N)N)NC(=O)[C@@H](NC(=O)[C@H](CCCNC(=N)N)NC(=O)[C@@H]1CCCN1C(=O)[C@H](Cc1c[nH]c2ccccc12)NC(=O)[C@H](CCC(N)=O)NC(=O)[C@@H]1CCCN1C(=O)[C@H](CC(C)C)NC(=O)[C@H](CC(C)C)NC(=O)CCCCCNC(=S)Nc1ccc2c(c1)C(=O)OC21c2ccc(O)cc2Oc2cc(O)ccc21)[C@@H](C)CC)C(=O)N[C@@H](CCCCN)C(=O)N[C@@H](CC(C)C)C(=O)N[C@@H](CC(C)C)C(=O)N[C@@H](CCCNC(=N)N)C(N)=O) [Example 19]”, the “cell penetration as determined” value is “low but still cell penetrating”.
For the substance “FITC-6Ahx-MRMIRFRKKIPYLRY-NH2 ({FITC-Ahx}-MRMIRFRKKIPYLRY-NH2; SMILES CC[C@H](C)[C@H](NC(=O)[C@H](CCSC)NC(=O)[C@H](CCCNC(=N)N)NC(=O)[C@H](CCSC)NC(=O)CCCCCNC(=S)Nc1ccc2c(c1)C(=O)OC21c2ccc(O)cc2Oc2cc(O)ccc21)C(=O)N[C@@H](CCCNC(=N)N)C(=O)N[C@@H](Cc1ccccc1)C(=O)N[C@@H](CCCNC(=N)N)C(=O)N[C@@H](CCCCN)C(=O)N[C@@H](CCCCN)C(=O)N[C@H](C(=O)N1CCC[C@H]1C(=O)N[C@@H](Cc1ccc(O)cc1)C(=O)N[C@@H](CC(C)C)C(=O)N[C@@H](CCCNC(=N)N)C(=O)N[C@@H](Cc1ccc(O)cc1)C(N)=O)[C@@H](C)CC) [Example 14]”, the “cell penetration as determined” value is listed as “low but still cell penetrating”.
In the case of “FITC-6Ahx-VKIWFQNRRVRWRKR-NH2 ({FITC-Ahx}-VKIWFQNRRVRWRKR-NH2; SMILES CC[C@H](C)[C@H](NC(=O)[C@H](CCCCN)NC(=O)[C@@H](NC(=O)CCCCCNC(=S)Nc1ccc2c(c1)C(=O)OC21c2ccc(O)cc2Oc2cc(O)ccc21)C(C)C)C(=O)N[C@@H](Cc1c[nH]c2ccccc12)C(=O)N[C@@H](Cc1ccccc1)C(=O)N[C@@H](CCC(N)=O)C(=O)N[C@@H](CC(N)=O)C(=O)N[C@@H](CCCNC(=N)N)C(=O)N[C@@H](CCCNC(=N)N)C(=O)N[C@H](C(=O)N[C@@H](CCCNC(=N)N)C(=O)N[C@@H](Cc1c[nH]c2ccccc12)C(=O)N[C@@H](CCCNC(=N)N)C(=O)N[C@@H](CCCCN)C(=O)N[C@@H](CCCNC(=N)N)C(N)=O)C(C)C) [Example 13]” it was “medium”.

(Values after US20150183827A1, “CELL PENETRATING PEPTIDES & METHODS OF IDENTIFYING CELL PENETRATING PEPTIDES” (Hoffmann-La Roche Inc., priority 2012, published 2015).)
